This is an account of results in US9624219B2, “Compound (S) and (R)-N-(2-fluoropyridin-4-yl)-3-methyl-2-(5-methyl-2,4-dioxo-1,2-dihydropyrido[3,4-d]pyrimidin-3(4H)-yl)butanamide and use” (GlaxoSmithKline Intellectual Property Development Limited, priority 2015, dated 2017).

One series has as its system P. Falciparum Pf3D7A. Put plainly: P. falciparum growth inhibition assay ([3H]hypoxanthine incorporation). Format: cell-based. To be noted: Plasmodium falciparum, 48 h, read-out: average Pf IC50. The procedure:
P. falciparum Growth Inhibition Assay. The sensitivity of P. falciparum infected erythrocytes to the compound is determined in triplicate using the [^3H]hypoxanthine incorporation method with an inoculum of 0.5% parasitemia (ring stage) and 2% hematocrit. The parasites were grown in RPMI 1640 and supplemented with […] (or 10% serum). Plates are incubated at 37° C., 5% CO2, 5% O2, 90% N2. After 24 h of incubation, [^3H]hypoxanthine is added and plates are incubated for another 24 h. After that period, plates are harvested on a glass fiber filter using a TOMTEC Cell harvester 96. Filters are dried and melt on scintillator sheets and the bound radioactivity is quantified by use of a Wallac Microbeta Trilux (Model 1450 LS-Perkin Elmer). IC50s are determined using Grafit 5 program (Grafit program; Erithacus Software, Horley, Surrey, United Kingdom).

Series [1] concerns Plasmodium falciparum Pf3D7^0087/N9. In words: P. falciparum in vivo efficacy assay (mouse model). As to conditions: interval of confidence 95%. Also on record: species or system NODscidIL2Rγ^null mice engrafted with human erythrocytes. The procedure: P. falciparum In Vivo Efficacy Assay.
Antimalarial in vivo efficacy was determined using the P. falciparum mouse model following the procedure described in: Jimenez-Diaz, M. B., Mulet, T., Viera, S., Gómez, V., Garuti, H., Ibañez, J., Alvarez-Doval, A., Shlutz, D. L., Martinez, A., Improved Murine Model Of Malaria Using Plasmodium falciparum (Competent Strains and Non-Myelodepleted NOD-scid IL2R_null Mice Engrafted with Human Erythrocytes) Antimicrob. Agents Chemother 2009, 53 (10), 4533-4536.
The goal of this study is to assess the therapeutic efficacy of Example 1 against Plasmodium falciparum Pf3D7^0087/N9 growing in peripheral blood of NODscidIL2Rγ^null mice engrafted with human erythrocytes. The levels of Example 1 are measured in serial peripheral blood samples obtained from each mouse of the efficacy experiment during the first 23 hrs after the first dose. The area under the curve of levels of compound is used to estimate the exposure in blood during the first 23 hours after the first administration (AUC0-23h).
The effect of Example 1 on P. Falciparum Pf3D7^0087/N9 was assessed by microscopy and flow cytometry.

A short description of series [2]: Solubility assessment in FaSSIF (equilibrium solubility). Format: physicochemical. As to conditions: thermodynamic from solid, 4 hr at room temperature, LC-MS. The procedure:
Solubility Assessment in FaSSIF
Organic solvents of HPLC grade were used. Ultra pure water (Milli-Q grade) was used. Buffers were prepared with ultra pure water and filtered using 0.45μ nylon filters.
Determination of Equilibrium Solubility (Assuming Chemical Stability in the Desired Solvent is not a Problem).
• a) 1 mg of solid compound was weighted in one 4 mL glass vial and 1 mL of FaSSIF was added. All these samples were prepared by duplicate. • b) The samples were stirred (roller mixer) for 4 hr at room temperature. If required, additional solid compound (0.1 mg) was added to maintain excess of it (saturated solutions). • c) After 4 hours, the samples were centrifuged (10000 rpm, 10 min.) and the supernatants were transfer to an HPLC vial and analysed by LC-MS (previous dilution with mobile phase when needed). • d) The pH of the final solution in each sample was measured with a pH-meter (WTW pH330i and a pH-electrode Sentix 41). LC-MS Assay for Analytical Quantification
All supernatants were analysed by LC-MS. Quantification of those samples was carried out against calibration curves obtained from 1 mg/mL DMSO (Aldrich cat. ref.: 27685-5) stock solutions, by dilution with the mobile phase used in the chromatography. Depending on the solubility range, U.V. (1 μg/mL to 100 μg/mL) or MS (1 μg/mL to 1 ng/mL) detector were used in the quantification. […]

Molecules are shown by their SMILES. ≈ marks a conversion by molar mass, not a printed value.

The IC50 is the concentration that gives 50% inhibition. The solubility is how much of the substance goes into solution per volume. Regarding `Cc1cncc2[nH]c(=O)n([C@H](C(=O)Nc3ccnc(F)c3)C(C)C)c(=O)c12` [Example 1, (S)—N-(2-fluoropyridin-4-yl)-3-methyl-2-(5-methyl-2,4-dioxo-1,2-dihydropyrido[3,4-d]pyrimidin-3(4H)-yl)butanamide], the IC50 in the series with P. Falciparum Pf3D7A amounted to 32 nM. In addition, the “mean ED90” value in series [1] (P. falciparum Pf3D7^0087/N9 in humanised NODscidIL2Rγnull mice) stood at 0.53 mg/kg. Also, in series [1] (blood exposure at ED90 (AUC0-23h after first dose), P. falciparum mouse model), the “mean AUCED90” value was 0.18 μg·h·mL-1·day-1. Also, the concentration in solution in series [2] (solubility at 4 h) came to 426 µg/mL (≈ 1150 µM).
